Data taken from PMC8933379, “Evaluation of the absolute oral bioavailability of the anaplastic lymphoma kinase/c-ROS oncogene 1 kinase inhibitor lorlatinib in healthy participants” (Cancer Chemotherapy and Pharmacology, 2021).
Converted amounts (≈) assume the structure as drawn. Like-named read-outs stand apart in the source and are kept apart here.

What was measured:
[1] = Absolute oral bioavailability crossover study: plasma pharmacokinetics (LC-MS/MS, non-compartmental analysis); assay type: in vivo, human; conditions: for half-life: read-out: t½ (plasma terminal half-life) (converted); for Tmax: median (range)
Experimental: This was an open-label, phase 1, randomized two-sequence, two-treatment, two-period, crossover study in healthy participants. Approximately 12 participants were to be randomized in a 1:1 ratio to receive one of two treatment sequences: lorlatinib 50 mg IV dose (Treatment A) followed by a lorlatinib 100 mg single oral dose (Treatment B), or lorlatinib oral dose followed by lorlatinib IV dose. The IV dose is 100% bioavailable and was, therefore, considered to be the reference in this study. The reference lorlatinib 50 mg single IV dose was administered as 250 mL IV solution (0.20 mg/mL) over approximately 1.25 h at a constant rate in the morning of Day 1. Lorlatinib 100 mg single oral dose was administered as 4 × 25 mg immediate-release free base tablets in the morning of Day 1 with 240 mL ambient temperature water. Participants were instructed to swallow the lorlatinib tablets whole and to not manipulate or chew the tablets prior to swallowing. Both treatments were administered after an overnight fast of at least 10 h. To standardise the conditions on PK sampling days, during the first 4 h after dosing or start of the IV dose, participants were to refrain from eating and drinking beverages other than water or lying down (unless required for safety monitoring). Period 1 was defined as a 7-day period in which participants received Treatment A or B. Period 2 was defined as the 7-day period after Period 1, in which participants received the alternative treatment to before. Following treatment administration, participants were to undergo PK sampling for 144 h with a washout period of at least 10 days between successive lorlatinib doses. The study was conducted at a single Pfizer Clinical Research Unit (CRU) in New Haven, Connecticut, and participants were confined to the CRU from the time of admission (Day 0) until discharge (Day 7 of Period 2).
The detection range was 0.05–50 ng/mL or 1 to 1000 ng/mL for low and high concentration samples, respectively. […] Calibration standard responses were linear over the range of 2.50–2500 ng/mL; using a weighted (l/concentration^2) linear least squares regression. […] The lower limit of quantification (LLOQ) for lorlatinib and its metabolite was 2.50 ng/mL.
PK parameter values were calculated using an internally validated software system (eNCA). Actual sample collection times were used for the PK parameter analysis and samples below the LLOQ were set to 0. Maximum observed plasma concentration, Cmax, and time when Cmax was reached, Tmax, were determined from the observed values. The area under the curve (AUC) from time 0 to the time of the last quantifiable concentration (AUClast) was estimated using the linear/log trapezoidal method. AUCinf was calculated as AUClast + (Clast/kel), where Clast was the predicted plasma concentration at the last quantifiable time point estimated from the log-linear regression analysis and kel was the terminal phase rate constant calculated by a linear regression of the log-linear concentration–time curve. PK parameters based on terminal phase estimation were reported only where a well-characterized terminal phase was observed. A well-characterized terminal phase is defined as one with at least three data points, r^2 ≥ 0.9, and AUCextrap% ≤ 20. Metabolite-to-parent ratios were calculated after adjustment for molecular weights. Clearance (CL) for the IV dose and CL/F for the oral dose were calculated as dose/AUCinf. Volume of distribution during the terminal phase (area) was calculated as IV dose/(kel×AUCinf).
The hepatic extraction ratio was calculated for each participant as the hepatic blood clearance divided by hepatic blood flow.
Summary profiles (mean) of the lorlatinib plasma concentration–time data were plotted by treatment. Nominal PK sampling time was used for summary statistics and summary plots by sampling time.

[2] = Solubility in aqueous media; assay type: physicochemical
[3] = parameters: method as in earlier work; conditions: cited from earlier work
[4] = parameters: method as in PMID 32441835; conditions: cited from earlier work; for Total drug-related radioactivity (parent plus metabolites) recovered in urine: depends on radioactivity placement on the molecule
[5] = dogs; animal studies, no reference given; cited from earlier work
[6] = planned IV dose formulation, rabbits; earlier toxicology studies, no reference given; cited from earlier work
[7] = used to estimate hepatic blood clearance; no reference given; cited from earlier work
[8] = parameters: method as in PMID 33937953; conditions: co-administered with modafinil; cited from earlier work
[9] = cited from earlier work; for Mean half-life: previous drug interaction studies
[10] = parameters: method as in PMID 24819116; conditions: in vitro; cited from earlier work
[11] = 100 mg oral tablets vs 50 mg IV, healthy participants, n = 11
[12] = lorlatinib 100 mg oral tablets, n = 11, geometric mean (geometric %CV)
[13] = 100 mg single oral dose of [14C]lorlatinib, healthy participants

C[C@H]1Oc2cc(cnc2N)-c2c(nn(C)c2C#N)CN(C)C(=O)c2ccc(F)cc21 [Lorlatinib, (10R)-7-amino-12-fluoro-2,10,16-trimethyl-15-oxo-10,15,16,17-tetrahydro-2H-8,4-(metheno)pyrazolo[4,3-h][2,5,11]-benzoxadiazacyclotetradecine-3-carbonitrile]
Absolute oral bioavailability: ratio (test/reference) of adjusted means, AUCinf (dn) [1, 11]: 80.78% | Ratio (test/reference) of adjusted means, AUClast (dn) [1, 11]: 81.65% | Absolute oral bioavailability: ratio (test/reference) of adjusted means, AUCinf (dn) ([1]; 100 mg oral tablets vs 50 mg IV, healthy participants, n = 11, listed as lorlatinib): 81% | Inter-subject variability (%CV) for AUCinf, AUClast and Cmax ([1]; both oral administration and IV dosing): 30–38% | AUC(0-inf) ([1]; human, plasma, iv, 50 mg, Reference, lorlatinib 50 mg IV, mixed-effects model, read-out: AUCinf (dn), adjusted geometric mean): 5190 ng·h/mL | AUC(0-t) ([1]; human, plasma, iv, 50 mg, Reference, lorlatinib 50 mg IV, mixed-effects model, read-out: AUClast (dn), adjusted geometric mean): 5030 ng·h/mL | AUC(0-inf) ([1]; human, plasma, iv, 50 mg, lorlatinib 50 mg IV, dose normalized, n = 11, geometric mean (geometric %CV), read-out: AUCinf (dn)): 5150 ng·h/mL | AUC(0-t) ([1]; human, plasma, iv, 50 mg, lorlatinib 50 mg IV, dose normalized, n = 11, geometric mean (geometric %CV), read-out: AUClast (dn)): 4990 ng·h/mL | half-life ([1]; human, plasma, iv, 50 mg, lorlatinib 50 mg IV, n = 11, arithmetic mean ± SD): 27 h | AUC(0-inf) ([1]; human, plasma, iv, 50 mg, lorlatinib 50 mg IV, n = 11, geometric mean (geometric %CV), read-out: AUCinf): 5150 ng·h/mL | AUC(0-t) ([1]; human, plasma, iv, 50 mg, lorlatinib 50 mg IV, n = 11, geometric mean (geometric %CV), read-out: AUClast): 4990 ng·h/mL | AUC(0-inf) ([1]; human, plasma, oral, 100 mg, Test, lorlatinib 100 mg oral tablets, mixed-effects model, normalized to 50 mg IV dose, read-out: AUCinf (dn), adjusted geometric mean): 4190 ng·h/mL | half-life ([1]; human, plasma, po, 100 mg, lorlatinib 100 mg oral tablets, n = 11, arithmetic mean ± SD): ~25.5 h | AUC(0-inf) ([1]; human, plasma, po, 100 mg, lorlatinib 100 mg oral tablets, single dose, fasted, n = 11, geometric mean (geometric %CV), read-out: AUCinf): 8290 ng·h/mL | Cmax ([1]; human, plasma, lorlatinib 50 mg IV, dose normalized, n = 11, geometric mean (geometric %CV), read-out: Cmax (dn)): 392 ng/mL | clearance ([1]; human, plasma, lorlatinib 50 mg IV, n = 11, geometric mean (geometric %CV)): 162 mL/min | Vd ([1]; human, plasma, lorlatinib 50 mg IV, n = 11, geometric mean (geometric %CV), read-out: Vss): 305 L | Tmax ([1]; human, plasma, lorlatinib 50 mg IV, n = 11, read-out: Tmax): 1.28 h | Vd/F ([1]; human, plasma, lorlatinib 100 mg oral tablets, n = 11, geometric mean (geometric %CV), read-out: Vz/F): 440 L | Cmax ([1]; lorlatinib 50 mg IV, n = 11, geometric mean (geometric %CV)): 392 ng/mL | t½ (plasma terminal half-life) ([1]; lorlatinib 100 mg oral tablets, n = 11, arithmetic mean ± SD): 25.54 ± 3.75 h | AUClast [1, 12]: 8109 (33) ng.h/mL | CL/F [1, 12]: 12.05 (34) L/h | Cmax [1, 12]: 501 ng/mL | Tmax ([1]; lorlatinib 100 mg oral tablets, n = 11): 1.50 (1.00–4.02) h | Eh (hepatic extraction ratio) ([1]; printed in the 100 mg oral column, plasma clearance × blood-to-plasma ratio 0.985 / hepatic blood flow 90 L/hr, geometric mean (geometric %CV)): 0.118 | solubility ([2]; pH 2.55): 32.4 mg/mL (≈ 79.7 mM) | solubility ([2]; pH 8.02): 0.17 mg/mL (≈ 0.418 mM) | Oral apparent clearance (CL/F), mean (CV%) ([3]; after a 100 mg single oral dose): 11 L/h | Oral apparent clearance (CL/F), mean (CV%) ([3]; at steady-state): 18 L/h | Plasma terminal half-life (t½), mean (CV%) [3]: approximately 24 h | Unchanged lorlatinib recovered in faeces [4, 13]: ~ 9% | Unchanged lorlatinib recovered in urine [4, 13]: < 1% | Total drug-related radioactivity (parent plus metabolites) recovered in urine ([4]; first of two values): 48% | Total drug-related radioactivity (parent plus metabolites) recovered in urine ([4]; second of two values): 28% | Absolute bioavailability [5]: ~97% | Local vascular tissue irritation [6]: did not indicate any local vascular tissue irritation | Blood-to-plasma partitioning ratio [7]: 0.985 | AUCinf reduction [8]: 23% | AUCinf increase ([9]; co-administered with itraconazole): 42% | Mean half-life ([9]; lorlatinib alone, itraconazole study): 23 h | Mean half-life ([9]; with the inhibitor itraconazole): 30 h | Permeability [10]: highly permeable
